Key:
[1] = molecular target: T1, HbAlc epitope of hemoglobin in lysed blood (Homo sapiens, UniProt P68871); test: Blood denaturing for electrochemical HbAlc immunoassay
T1 construct: from tissue; host or cells: whole blood, lysed (freeze/thaw) and denatured
Excerpt: Blood lysis is necessary to release the hemoglobin followed by denaturing to expose the HbAlc epitope. Lysis can easily be accomplished via surfactants, osmotic effects of dilution with water, and directly by many denaturants. […] Conversely, denaturing the lysed blood with a variety of known denaturants to expose the HbAlc epitope has shown significant suppression of the electrochemical response, inhibiting measurement of an HbAlc dose response.
Denaturing the sample for antibody recognition without severely fouling the electrode surface is important for successful development of an HbAlc immunoassay. Although LiSCN has been used almost exclusively to show feasibility, it has many limitations that would hinder its use in the disposable. Citric acid, a solid at RT may offer benefits as a denaturant if it could be dried onto a strip followed by a diluent to adjust the pH to neutral. Acid or base blood denaturing followed by a final pH adjustment with a buffered diluent is an area worth further evaluation. One problem that was initially encountered was precipitation in adjusting the pH back to neutral, which can be overcome by using a different buffer or with the addition of surfactants.

[2] = system: PAB IS (polyclonal immunosorbent purified HbAlc antibody); test: Inhibition of osmium mediator label current with antibody; assay type: binding, sheep
Excerpt: 3. Antibodies for the analytes (HbAlc and HbA0) which react specifically with the N-terminal peptides which have been incorporated into the conjugate are provided by standard methods for producing polyclonal antibodies. In this case, sheep were immunized with carrier proteins to which were conjugated the synthetic peptide sequences for HbAlc and HbA0. Following the appropriate immunization schedule, the sheep were bled, and the antibody isolated from the blood via ion exchange chromatography, followed by immunosorbent purification on a column of the same N-terminal peptide with a different linker.
(§1) Polyclonal DE (ion-exchange) purified sheep antibody is used in the TinaQuant HbAlc assay. IS (immunosorbent) antibody is prepared using standard IS purification methodology. Samples of a monoclonal antibody were also obtained for evaluation. Inhibition curves were performed in solution with all mixing occurring in microcentrifuge tubes. Inhibition curves with the three hemoglobin Alc antibodies (PAB IS, PAB DE, and MAB) were generated by fixing OS—DSG—Alc at 5 μM and varying the antibody concentration. […] From the inhibition curves we were able to select reasonable concentrations of antibody for maximum reversal with Alc samples.
While these feasibility studies for a HbAlc immunoassay used an enzyme mediated amplification method. […]

[3] = Storage stability of osmium mediator-peptide conjugates; settings: for Stability in solution: stored as solution
Method: Stability of the mediator labels were also evaluated by monitoring % inhibition values over time.

[4] = system: MAB (monoclonal HbAlc antibody); test: Inhibition of osmium mediator label current with antibody; assay type: binding
Method: as §1
(§2) While these feasibility studies for a HbAlc immunoassay used an enzyme mediated amplification method. (Glucdor/PQQ/glucose was used to regenerate reduced mediator after oxidation at the electrode surface providing a higher diffusion controlled current is given by the cottrell equation), they are considered to be indicative of results attainable with the use of IDA electrodes with bipotentiostatic control in accordance with this invention.

[5] = system: PAB DE (polyclonal ion-exchange purified HbAlc antibody); test: as above; assay type: binding, sheep
Method: as §1, §2

Sheep B<HBA0> = test: as above; assay type: binding
Excerpt: HbAlc assay requires measuring both Al c concentration and total hemoglobin concentration and reports the results as a ratio of these two measurements (%HbAlc). It is advantageous to assay both Alc and total hemoglobin using same principle because ratioing would minimize biases due to environmental effects. Thus antibody has been raised to bind specifically to hemoglobins with unglycosylated N-terminus, i.e. with an epitope sequence of Val-His-Leu-Thr(SEQ ID NO:5). Similarly, nonnative amino acid is added to the sequence to facilitate conjugation. The peptides used for total hemoglobin measurement is termed as A0 peptide. A0 peptides that have been used in the preparation of Os mediator-peptide conjugates include Val-His-Leu-Thr-Cys(SEQ ID NO:6) and Val-His-Leu-Thr-Lys(SEQ ID NO:7).

HbA0 antibody = test: Inhibition reversal with A0HB-peptide#1; assay type: binding
Method: (§3) Mediator concentration dose response, inhibition with antibody and reversal with a BSA—Alc polyhaptan were evaluated and summarized in Table 5.

Zymed rabbit antibodies = test: Inhibition of osmium mediator label current with antibody; assay type: binding
Method: as §3

glucose oxidase = glucose oxidase (Aspergillus niger, UniProt P13006); settings: with glucose oxidase; cited from earlier work
Sequence of glucose oxidase (P13006 17-605, species assumed): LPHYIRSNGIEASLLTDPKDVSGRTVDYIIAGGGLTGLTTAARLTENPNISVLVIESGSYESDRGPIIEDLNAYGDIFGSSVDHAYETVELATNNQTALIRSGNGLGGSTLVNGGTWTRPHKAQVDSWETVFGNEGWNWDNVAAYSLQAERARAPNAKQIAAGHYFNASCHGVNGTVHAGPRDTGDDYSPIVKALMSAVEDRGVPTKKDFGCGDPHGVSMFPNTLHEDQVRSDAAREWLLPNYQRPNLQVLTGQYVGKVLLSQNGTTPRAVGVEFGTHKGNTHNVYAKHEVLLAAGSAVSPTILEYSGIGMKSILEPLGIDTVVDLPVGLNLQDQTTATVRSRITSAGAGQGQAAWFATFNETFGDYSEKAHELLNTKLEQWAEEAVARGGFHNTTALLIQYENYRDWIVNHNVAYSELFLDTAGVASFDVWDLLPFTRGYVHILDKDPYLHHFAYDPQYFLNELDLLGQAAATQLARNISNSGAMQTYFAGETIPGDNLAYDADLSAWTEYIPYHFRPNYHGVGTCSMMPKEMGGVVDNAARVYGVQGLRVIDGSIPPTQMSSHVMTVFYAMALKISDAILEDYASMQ

T1 sequence (P68871 2-147 limits assumed): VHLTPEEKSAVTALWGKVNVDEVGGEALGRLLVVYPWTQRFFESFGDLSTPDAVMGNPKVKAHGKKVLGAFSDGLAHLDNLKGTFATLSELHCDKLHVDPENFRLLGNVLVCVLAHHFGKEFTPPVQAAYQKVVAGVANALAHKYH

For `Cl` [Hydrochloric Acid], the “Evidence of blood denaturing” value [1] was “Evidence of blood denaturing was seen by all: “solution”.

For `CC(C)CC(NC(=O)C(Cc1cnc[nH]1)NC(=O)C(NCC1(O)OCC(O)C(O)C1O)C(C)C)C(=O)NC(C(=O)NC(CCCCNC(=O)CCCC(=O)NCCc1c[n+]([Os]23([Cl])([n+]4ccccc4-c4cccc[n+]42)[n+]2ccccc2-c2cccc[n+]23)c[nH]1)C(=O)O)C(C)O` (stereo not drawn) [Os-DSG-Alc], the “Inhibition with Antibody PAB IS” value [2] was “PAB IS (≦91%)”, the “Stability in lyophilized form” value ([3]; lyophilized) was “stable” and the “Stability frozen in solution” value ([3]; −20° C., 40 and 80 μM) was “stable”. For the same molecule, the “Inhibition with Antibody MAB” value [4] was “MAB (≦78%)” and the “Inhibition with Antibody PAB DE” value [5] was “PAB DE (≦87%)”.

In the case of `CC(C)CC(NC(=O)C(Cc1cnc[nH]1)NC(=O)C(N)C(C)C)C(=O)NC(C(=O)NC(CCCCNC(=O)CCCCCN1C(=O)CC(SCC(=O)NCCc2c[n+]([Os]34([Cl])([n+]5ccccc5-c5cccc[n+]53)[n+]3ccccc3-c3cccc[n+]34)c[nH]2)C1=O)C(=O)O)C(C)O` (stereo not drawn) [Os-SATA-A0], the Stability in solution [3] is reported as “unstable in solu-”, the “Inhibition with Antibody Sheep B<HBA0>” value (Sheep B<HBA0>) is reported as ≤ 84% and the Reversal (HbA0 antibody) is reported as “No”. The “Inhibition with Zymed rabbit antibodies” value (Zymed rabbit antibodies) was “No”.

In the case of `N#C[S-].[K+]` [KSCN], the “Blood HbAlc dose response with denatured blood” value (from here on “Blood HbAlc dose response”) [1] is reported as “Initial work did not show a dose response with KSCN”.

For bis(bipyridyl) imidazolyl chloroosmium, the “mediation kinetics relative to ferricyanide” value (glucose oxidase) is listed as “about 500 times faster”.

For `N#C[S-].[Li+]` [LiSCN], the “Blood HbAlc dose response” value [1] was “able to expose the Alc epitope and minimize protein fouling enough to measure an HbAlc dose response”.

With `O=S(=O)(O)O` [Sulfuric Acid] the “Evidence of blood denaturing” value [1] was “Evidence of blood denaturing was seen by all: “solution”.

For `[Na+].[OH-]` [NaOH], the “Evidence of blood denaturing” value [1] was “Evidence of denaturing: “solution turned brown.””.

With `CCCCCCCCCCCCCC[N+](C)(C)C.[Br-]` [TTAB, Tetra decyltrimethyl ammonium bromide] the “Evidence of blood denaturing” value [1] was “Evidence of denaturing: “solution turned green””.

In the case of `CC(C)CC(NC(=O)C(Cc1cnc[nH]1)NC(=O)C(NCC1(O)OCC(O)C(O)C1O)C(C)C)C(=O)NC(C(=O)NC(CCCCNC(=O)CCCCCN1C(=O)CC(SCC(=O)NCCc2c[n+]([Os]34([Cl])([n+]5ccccc5-c5cccc[n+]53)[n+]3ccccc3-c3cccc[n+]34)c[nH]2)C1=O)C(=O)O)C(C)O` (stereo not drawn) [Os-SATA-Alc], the “Inhibition with Antibody PAB IS” value [2] is reported as “PAB IS (≦44%)” and the Stability in solution [3] is reported as “Stability similar”.

For `[O-][Cl+3]([O-])([O-])O` [Perchloric Acid], the “Evidence of blood denaturing” value [1] was “Evidence of blood denaturing was seen by all: “solution”.

In the case of `O=C(O)CC(O)(CC(=O)O)C(=O)O` [citric acid], the “Blood HbAlc dose response” value [1] is reported as “able to expose the Alc epitope and minimize protein fouling enough to measure an HbAlc dose response” and the “Evidence of blood denaturing” value [1] is reported as “Evidence of blood denaturing was seen by all: “solution”.
